Our source for the TGI values is PubChem BioAssay (NCI).

SMILES strings stand for the structures.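 Step 1: Grow cells in 96-well plates. Step 2: Expose to compound for 48 hours at 5 concentrations. Step 3: Interpolate endpoints linearly; if unreached, use highest concentration. The concentration for full growth arrest is given as TGI.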

What all share (assay): NCI tumour cell line growth inhibition, 48 h
Assay [1] relates to A549 NSCLC.
Assay [2] has as its system ACHN renal.
Assay [3] deals with EKVX NSCLC.
Assay [4] concerns HT29 colon.
The test system of assay [5] is M14 melanoma.
Assay [6] concerns MOLT-4 leukemia.
Assay [7] concerns NCI-H522 lung.
For assay [8], the system named is SF-539 CNS.
The test system of assay [9] is SK-MEL-5 melanoma.
The test system of assay [10] is TK-10 renal.
Assay [11] deals with HS 578T breast.
The test system of assay [12] is MCF7 breast.
Assay [13] has as its system MDA-MB-231 breast.
The subject of assay [14] is BT-549 breast.

On to `C[N+](C)(C)Cc1c(CC#N)[nH]c2ccccc12`, for which the TGI in [1], in assay [2], in [3], in assay [4], in assay [5] and in assay [6] was above 100 µM throughout. The TGI in assay [7], in [8], in assay [9] and in assay [10] was above 100 µM each time.
In the case of `COP(=O)(OC)C(O)/C=C(\Cl)c1ccc(Cl)cc1` (stereo unspecified), the TGI in assay [1], in assay [2], in assay [3], in assay [11], in assay [4] and in assay [5] was above 100 µM each time. In addition, the TGI in [12] was above 100 µM; in assay [13], above 100 µM; in [6] it was 86.1 µM; in assay [7], above 100 µM; in [8], above 100 µM; in [9], 67.8 µM. In addition, the TGI in [10] is above 100 µM.
With `O=C(O)C(Cc1cnc[nH]1)N=Cc1nc(-c2ccccc2)oc1O` (stereo unspecified), the TGI in [1], in assay [2], in assay [3], in assay [4], in assay [5] and in [6] was above 100 µM in each case. In addition, the TGI in assay [7], in assay [8], in assay [9] and in [10] was above 100 µM each time.
Consider `O/N=C1/CCCCCC1NO` (stereo unspecified), for which the TGI in assay [1], in assay [2], in assay [3], in assay [11], in [4] and in assay [5] was above 100 µM in each case. For the same compound, the TGI in [12], in [13], in [6], in assay [8], in assay [9] and in assay [10] was above 100 µM each time.
For the compound `Cc1ccc(S(=O)(=O)N/N=C/c2oc(-c3ccccc3Cl)c(-c3ccccc3Cl)c2[N+](=O)[O-])cc1`, the TGI in assay [1] is above 100 µM; in [2] it was 39.2 µM; in assay [3], above 100 µM; in assay [4], above 100 µM; in [5] it was above 100 µM; in assay [6] it was above 100 µM. The TGI in [7] is 26 µM; in [8], 46.1 µM; in assay [9], 43.1 µM; in assay [10] it was above 100 µM.
Take `COc1ccc(N=Nc2c(C)c(C#N)c(=S)n(C3OC(COC(C)=O)C(OC(C)=O)C(OC(C)=O)C3OC(C)=O)c2-c2ccccc2)cc1` (stereo unspecified): the TGI was 29.7 µM in [1]; above 100 µM in assay [2]; 17.6 µM in assay [14]; above 100 µM in [4]; 10.7 µM in assay [5]; 17.5 µM in assay [12]. Further, the TGI was 22.3 µM in assay [13], 47.9 µM in assay [6] and 34.2 µM in assay [10].
Turning to `CCCN1CN(c2ccccc2)C2(CCN(CCCC(=O)c3ccc(F)cc3)CC2)C1=O`, the TGI in assay [1] worked out at 29.8 µM; in assay [2], 12.9 µM; in assay [3], 54.2 µM; in assay [11] it was 34.1 µM; in assay [4], 7.02 µM; in assay [5] it was 25.1 µM. Moreover, the TGI in [12] is 11.9 µM; in assay [13], 18.1 µM; in assay [6], 15.5 µM; in assay [7] it was 43.6 µM; in assay [8], 15.5 µM; in [9] it was 4.84 µM. Moreover, in [10], the TGI stood at 22.4 µM.
On to `O=C1c2ccccc2C(=O)C2C3c4ccccc4C(c4ccccc43)C12` (stereo unspecified), for which the TGI in assay [1] was above 100 µM; in assay [2], above 100 µM; in [3], 68.5 µM; in [4] it was 79.4 µM; in [5] it was above 100 µM; in assay [6] it was 27.9 µM. For the same compound, the TGI in assay [7] was above 100 µM; in assay [8], 25.4 µM; in assay [10], 63.3 µM.
With `O=C1SC(c2ccccc2)(c2ccccc2)c2ccccc21`, the TGI in [1], in assay [2], in [3], in [4], in assay [5] and in assay [6] was above 100 µM in each case. In addition, the TGI in assay [7], in assay [8], in assay [9] and in assay [10] was above 100 µM in each case.
For `Cc1nc2c(n1CCC(C)C)C(=O)c1ccccc1C2=O`, the TGI in [1] was above 100 µM; in [2], above 100 µM; in assay [3] it was 92 µM; in assay [4], above 100 µM; in [5], 38 µM; in assay [6] it was 76.2 µM. In addition, the TGI is 55.9 µM in [7], 25.4 µM in assay [8], 28.4 µM in assay [9] and above 100 µM in assay [10].
Regarding `O=c1[nH]c(=O)n(C2CC(O)C(CO)O2)cc1C#Cc1cc(C(F)(F)F)cc(C(F)(F)F)c1` (stereo unspecified), the TGI is above 100 µM in assay [1]; above 100 µM in assay [2]; above 100 µM in [3]; above 51.9 µM in [4]; above 46.5 µM in assay [5]; above 100 µM in assay [6]. In addition, the TGI in [7] is above 81.5 µM; in [8], above 90.9 µM; in [9] it was above 55.6 µM; in assay [10] it was above 100 µM.
As to `CC(C)[Si](OCC1CC(C[C@H]2CC(C[C@H]3C[C@@H](CO[Si](C(C)C)(C(C)C)C(C)C)OC(C)(C)O3)OC(C)(C)O2)OC(C)(C)O1)(C(C)C)C(C)C` (stereo partly specified), the TGI in assay [1], in assay [2], in [3], in assay [4], in assay [5] and in [6] was above 100 µM throughout. Besides, the TGI in assay [7], in assay [8], in assay [9] and in [10] was above 100 µM each time.
